One compound from PMC3986099, “Development of a Radioiodinated Triazolopyrimidine Probe for Nuclear Medical Imaging of Fatty Acid Binding Protein 4” (PLoS ONE, 2014) can be followed below.

The target of one experiment is T1, his-tagged FABP5 (Homo sapiens, UniProt Q01469).
T1 construct: purchased Cayman Chemical Company
As to the kind of experiment: Selectivity binding assay with FABP immobilized on Ni-NTA magnetic agarose beads. The settings on record: immobilized FABP5, 2 hr, room temperature. As for the experimental part: (§1) For the selectivity binding assay, his-tagged FABP3 (0.75 mg/ml), FABP4 (0.75 mg/ml) and FABP5 (0.70 mg/ml) in 50 mM phosphate buffer containing 100 mM NaCl (20% glycerol, v/v, pH = 7.2) were used. Immobilization was performed following the manufacturer's procedures. Each solution of his-tagged FABP3 ([…], 1.5 µg), FABP4 (0.002 ml, 1.5 µg) or FABP5 (0.002 ml, 1.4 µg) was incubated with 0.02 ml Ni-NTA Magnetic Agarose Beads (Qiagen) and 0.5 ml protein binding buffer (50 mM NaH2PO4, 300 mM NaCl, 10 mM imidazole, pH = 8.0) at room temperature for 1 hr. After supernatant removal, protein binding buffer with 1% BSA was added, and the mixture was incubated at room temperature for 30 min. After removal of the supernatant, 0.4 ml of interaction buffer (50 mM NaH2PO4, 300 mM NaCl, 10 mM imidazole, and 0.005% Tween, v/v, pH = 8.0) and 0.05 ml [^125I]TAP1 (0.01 MBq) in interaction buffer (5% ethanol, v/v) were added. For measurement of non-specific binding, 0.05 ml of nonradioactive TAP1 in interaction buffer (5% ethanol, v/v, 11.3 µM) was added with the [^125I]TAP1. After incubation at room temperature for 2 hr, the supernatants were removed, and the beads washed with interaction buffer (5% ethanol, v/v). The radioactivity of beads in the tubes was measured with a well-type γ-counter (1480 Wizard3, PerkinElmer Japan Co., Osaka, Japan). Binding ratios were calculated as (radioactivity of beads)/(total applied radioactivity)/(protein abundance on beads)×100 (%Dose/µg protein).

The next experiment addresses T2, his-tagged FABP4 (Homo sapiens, UniProt P15090).
T2 construct: purchased Cayman Chemical Company
The experiment is described as above. As for the experimental part:
as §1

T2 sequence (P15090 whole entry): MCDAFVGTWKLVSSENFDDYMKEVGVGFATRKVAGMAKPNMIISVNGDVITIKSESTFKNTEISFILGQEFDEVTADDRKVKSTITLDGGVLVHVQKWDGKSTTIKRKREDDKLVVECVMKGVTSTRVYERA
T1 sequence (Q01469 whole entry): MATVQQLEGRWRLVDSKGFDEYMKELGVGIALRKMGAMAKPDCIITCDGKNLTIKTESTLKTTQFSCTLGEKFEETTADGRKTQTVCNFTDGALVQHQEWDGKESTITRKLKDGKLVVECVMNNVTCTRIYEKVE

Regarding `O=c1cc(COc2cccc([125I])c2)[nH]c2nc(-c3ccccc3)nn12` [[^125I]TAP1], the “binding to FABP5” value on his-tagged FABP5 is 0.5±0.3 % dose/µg protein. The “FABP4 binding relative to FABP3” value on his-tagged FABP4 (FABP4 over FABP3) came out at 11.5 fold. Also, the “FABP4 binding relative to FABP5” value on his-tagged FABP4 (FABP4 over FABP5) stood at 33.2 fold. Besides, the “binding to FABP4” value at his-tagged FABP4 (immobilized FABP4, 2 hr, room temperature) worked out at 16.3±3.4 % dose/µg protein.
